Laboratory results taken from US9333197B2, “Apoptosis signal-regulating kinase inhibitor” (Gilead Sciences, Inc., priority 2012, dated 2016).
Read-outs that look alike come from different tables or passages of the source.

Assays:
[1] = Rat pharmacokinetics, 1 mg/kg IV infusion and 5.0 mg/kg PO; format: in vivo; settings: for Vd / clearance: 1 mg/kg IV infusion; for Vd: read-out: Vss in rats; for bioavailability: 5.0 mg/kg PO, read-out: oral bioavailability (% F) in rats; for clearance: read-out: CL in rats (converted)
Protocol: For IV administration the test compound was formulated in 60:40 PEG 400:water with 1 equivalent HCl at 0.5 mg/mL.
For PO (oral) administration, the test compound was formulated in 5/75/10/10 ethanol/PG/solutol/water at 2.5 mg/mL.
IV and PO dosing groups each consisted of 3 male SD rats. […] The animals were fasted overnight prior to dose administration and up to 4 hr after dosing.
For the IV infusion group, the test compound was administered by intravenous infusion over 30 minutes. The rate of infusion was adjusted according to the body weight of each animal to deliver a dose of 1 mg/kg at 2 mL/kg. For the oral dosing group, the test article was administered by oral gavage at 2 mL/kg for a dose of 5.0 mg/kg.
Serial venous blood samples (approximately 0.4 mL each) were taken at specified time points after dosing from each animal. The blood samples were collected into Vacutainer™ tubes (Becton-Disckinson Corp, New Jersey, USA) containing EDTA as the anti-coagulant and were immediately placed on wet ice pending centrifugation for plasma.
An LC/MS/MS method was used to measure the concentration of test compound in plasma.
Non-compartmental pharmacokinetic analysis was performed on the plasma concentration-time data.

[2] = 3 h, 2 μM, pH 7.4
Protocol: 1 mL Teflon dialysis cells from Harvard Apparatus (Holliston, Mass., USA) were used in these experiments. […] A nominal concentration of 2 μM of compound was spiked into 1 mL of plasma or 1 mL of cell culture media. The total volume of liquid on each side of the cell was 1 mL. After 3 hours equilibration in a 37° C. water bath, samples from each side of the cell were aliquoted into the appropriate vials containing either 1 mL of human plasma (cell culture media), or buffer. Sample vials were weighed and recorded. […] Samples were vortexed and centrifuged for 15 minutes at 12000 G. 200 μL of the supernatant was removed and placed into a new 96 well plate. An additional 200 μL of 1:1 ACN:water was added. The plate was then vortexed and subjected to LC-MS analysis. The percent unbound for an analyte in plasma was calculated using the following equations % Unbound=100(Cf/Ct) where Cf and Ct are the post-dialysis buffer and plasma concentrations, respectively.

Caco-2 cells = test: Determination of CACO-2 efflux ratio / permeability; format: in vitro ADME; settings: for CACO A→B: apical to basolateral; for CACO B→A: basolateral to apical
Protocol: (§1) Caco-2 cells were maintained in Dulbecco's Modification of Eagle's Medium (DMEM) with sodium pyruvate, Glutmax supplemented with 1% Pen/Strep, 1% NEAA and 10% fetal bovine serum in an incubator set at 37° C., 90% humidity and 5% CO2. Caco-2 cells between passage 62 and 72 were seeded at 2100 cells/well and were grown to confluence over at least 21-days on 24 well PET (polyethylene-terephthalate) plates (BD Biosciences). The receiver well contained HBSS buffer (10 mM HEPES, 15 mM Glucose with pH adjusted to pH 6.5) supplemented with 1% BSA pH adjusted to pH 7.4. After an initial equilibration with transport buffer, TEER values were read to test membrane integrity. Buffers containing test compounds were added and 100 μl of solution was taken at 1 and 2 hrs from the receiver compartment. Removed buffer was replaced with fresh buffer and a correction is applied to all calculations for the removed material. The experiment was carried out in replicate. All samples were immediately collected into 400 μl 100% acetonitrile acid to precipitate protein and stabilize test compounds. Cells were dosed on the apical or basolateral side to determine forward (A to B) and reverse (B to A) permeability. Permeability through a cell free trans-well is also determined as a measure of cellular permeability through the membrane and non-specific binding. To test for non-specific binding and compound instability percent recovery is determined. Samples were analyzed by LC/MS/MS.
(§2) Vr and Vd is the volume in the receiver and donor compartment in cm^3, respectively. A is the area of the cell monolayer (0.33 cm^2). D0 and D120 is the measured donor concentration at the beginning and end of the experiment, respectively. R120 is the receiver concentration at the end of the experiment (120 minutes).

CYP3A4 = CYP3A4 (Homo sapiens (Human), UniProt P08684); test: Cytochrome P450 inhibition IC50, CYP3A4 (midazolam and testosterone); format: in vitro ADME; settings: for IC50: comparative table, testosterone substrate, read-out: Cyp3A4 IC50 Testesterone (TST)
ASK1 = ASK1 (Rattus norvegicus, UniProt A0A8I6AEL0); test: ASK1 293 cell-based assay (cellular EC50), AP-1:luciferase reporter
Protocol: 2. […] Promega Steady-Glo Luciferase Assay System product insert. 3. Media Required Complete Growth Medium, “CGM” DMEM (MediaTech) 10% FBS 1% PSG 100 ug/mL HygromycinB Assay Medium, “AM” DMEM (Invitrogen) 25 mM HEPES 1 mM Sodium Pyruvate 1% PSG 4. Methods Maintenance:
Count cells and dilute to 1.5×10^5 cells per mL; add adenovirus such that there are 5 infectious forming units per cell.
Prime (20 to 30 mL) and plate cells in Greiner poly-D-Lysine coated 384-well plates at 1.2×10^4 cells per well using BioTek uFill (80 uL per well).
Immediately dose plates with 0.4 uL of compound dose series (in 100% DMSO) incubate 24 hours in humidified incubator (37° C., 5% CO2).
Process plates (per manufacturer's instructions) as follows:
Remove 60 uL of AM from assay wells
Add 20 uL per well Steady-Glo Firefly substrate, let sit for 10-20 minutes at room temperature
Acquire data on a fluorescence plate reader

[3] = Determination of CACO-2 efflux ratio / permeability; format: in vitro ADME; settings: human, Caco-2, pH 7.4; read-out: Efflux ratio (B/A)/(A/B)
Protocol: as §1, §2

[4] = Sprague-Dawley, rat, plasma, male SD rats

ASK1, sequence (A0A8I6AEL0 1-1381): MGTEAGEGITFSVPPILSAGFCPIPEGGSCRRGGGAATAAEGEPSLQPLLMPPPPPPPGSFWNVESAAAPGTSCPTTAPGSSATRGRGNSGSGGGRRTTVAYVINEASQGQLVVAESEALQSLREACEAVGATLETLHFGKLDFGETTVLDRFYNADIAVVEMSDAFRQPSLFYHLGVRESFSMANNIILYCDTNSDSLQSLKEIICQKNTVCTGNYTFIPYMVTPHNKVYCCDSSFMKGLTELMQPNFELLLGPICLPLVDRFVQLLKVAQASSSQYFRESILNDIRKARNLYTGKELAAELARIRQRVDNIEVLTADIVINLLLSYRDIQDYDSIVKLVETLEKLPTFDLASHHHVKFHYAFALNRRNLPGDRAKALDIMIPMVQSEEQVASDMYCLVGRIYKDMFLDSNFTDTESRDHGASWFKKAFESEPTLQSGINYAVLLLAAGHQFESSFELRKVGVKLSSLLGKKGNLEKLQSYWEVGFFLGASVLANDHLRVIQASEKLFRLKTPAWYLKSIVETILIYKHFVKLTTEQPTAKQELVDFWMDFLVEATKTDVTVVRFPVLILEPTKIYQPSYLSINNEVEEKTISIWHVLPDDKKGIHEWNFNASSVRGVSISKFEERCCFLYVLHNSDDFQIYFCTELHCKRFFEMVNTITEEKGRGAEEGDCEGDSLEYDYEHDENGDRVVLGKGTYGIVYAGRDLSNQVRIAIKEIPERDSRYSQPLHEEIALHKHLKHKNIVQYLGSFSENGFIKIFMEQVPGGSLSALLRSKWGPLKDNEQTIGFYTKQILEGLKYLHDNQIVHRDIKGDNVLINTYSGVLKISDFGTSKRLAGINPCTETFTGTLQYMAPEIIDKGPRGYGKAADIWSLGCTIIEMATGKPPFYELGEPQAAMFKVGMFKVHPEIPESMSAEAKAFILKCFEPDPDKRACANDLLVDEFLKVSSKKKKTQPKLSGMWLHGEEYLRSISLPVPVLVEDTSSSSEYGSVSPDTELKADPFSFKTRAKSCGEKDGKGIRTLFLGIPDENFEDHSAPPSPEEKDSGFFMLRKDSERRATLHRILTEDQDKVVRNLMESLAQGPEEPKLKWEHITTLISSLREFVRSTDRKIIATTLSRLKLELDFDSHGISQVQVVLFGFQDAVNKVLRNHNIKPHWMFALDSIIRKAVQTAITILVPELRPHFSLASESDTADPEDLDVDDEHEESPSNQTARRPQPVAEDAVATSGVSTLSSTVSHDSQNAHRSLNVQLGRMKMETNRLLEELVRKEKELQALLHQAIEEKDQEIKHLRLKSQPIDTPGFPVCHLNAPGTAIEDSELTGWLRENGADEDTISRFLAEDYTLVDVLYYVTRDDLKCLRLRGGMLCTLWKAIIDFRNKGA
CYP3A4, sequence (P08684 whole entry): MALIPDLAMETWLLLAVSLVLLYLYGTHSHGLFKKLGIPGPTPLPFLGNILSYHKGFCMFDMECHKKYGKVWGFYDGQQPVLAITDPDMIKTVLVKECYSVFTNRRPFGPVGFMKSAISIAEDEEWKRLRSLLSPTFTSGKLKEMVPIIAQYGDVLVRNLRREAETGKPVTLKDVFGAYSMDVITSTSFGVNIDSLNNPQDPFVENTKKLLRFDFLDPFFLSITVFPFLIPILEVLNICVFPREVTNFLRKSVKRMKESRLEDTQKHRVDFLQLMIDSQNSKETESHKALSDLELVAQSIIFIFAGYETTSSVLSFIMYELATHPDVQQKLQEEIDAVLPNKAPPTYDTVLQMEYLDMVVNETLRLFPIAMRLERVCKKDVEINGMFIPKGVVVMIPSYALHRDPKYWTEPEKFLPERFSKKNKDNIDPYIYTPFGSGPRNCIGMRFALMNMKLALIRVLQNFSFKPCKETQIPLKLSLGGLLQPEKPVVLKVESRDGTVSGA

With `Cc1cc(F)c(C(=O)Nc2cccc(-c3nncn3C(C)C)n2)cc1-n1cnc(C2CC2)c1` [compound of formula (I), 5-(4-cyclopropyl-1H-imidazol-1-yl)-N-(6-(4-isopropyl-4H-1,2,4-triazol-3-yl)pyridin-2-yl)-2-fluoro-4-methylbenzamide] the Vd ([1]; rat, plasma, male SD rats) was 0.55 L/kg, the bioavailability ([1]; rat, plasma, male SD rats) was 75% and the “percent unbound measured in human plasma” value [2] was 11.94%.

`CC(C)n1cnnc1-c1cccc(NC(=O)c2cccc(-n3cnc(C4CC4)c3)c2)n1` [Compound A] gave a clearance [1, 4] of 5 mL/min/kg, a Vd [1, 4] of 0.17 L/kg and a bioavailability [1, 4] of 11%. The t1/2 in rats ([1]; male SD rats) was 0.59 h, the “number of times compound of formula (I) shows an improvement over the indicated compound: % F in rats” value ([1]; rat, in vivo) was 6.8 X and the “number of times compound of formula (I) shows an improvement over the indicated compound: CL in rats” value ([1]; rat, in vivo) was 2.7 X. For the same compound, the “number of times compound of formula (I) shows an improvement over the indicated compound: Vss in rats” value ([1]; rat, in vivo) was 3.2 X, the “number of times compound of formula (I) shows an improvement over the indicated compound: t½ in rats” value ([1]; rat, in vivo) was 8.6 X and the “CACO A→B” value (Caco-2 cells) was 3.1. For the same compound, the “CACO B→A” value (Caco-2 cells) was 18.5, the “number of times compound of formula (I) shows an improvement over the indicated compound: Cyp3A4 IC50 (TST)” value (CYP3A4) was 10 X and the IC50 (CYP3A4) was 1100 nM.

`Cc1ccc(C(=O)Nc2cccc(-c3nncn3C3CC3)n2)cc1-n1cnc(C2CC2)c1` [Compound B] showed a clearance [1, 4] of 6.5 mL/min/kg, a Vd [1, 4] of 0.54 L/kg and a bioavailability [1, 4] of 50%. For the same compound, the half-life ([1]; Sprague-Dawley, rat, plasma, male SD rats, read-out: t1/2 in rats (converted)) was 1.3 h, the “number of times compound of formula (I) shows an improvement over the indicated compound: % F in rats” value ([1]; rat, in vivo) was 1.5 X and the “number of times compound of formula (I) shows an improvement over the indicated compound: CL in rats” value ([1]; rat, in vivo) was 3.6 X. The “number of times compound of formula (I) shows an improvement over the indicated compound: t½ in rats” value ([1]; rat, in vivo) was 3.9 X, the “number of times compound of formula (I) shows an improvement over the indicated compound: EC50” value (ASK1) was 9 X and the “number of times compound of formula (I) shows an improvement over the indicated compound: PBadj EC50” value (ASK1) was 33 X. It also gave an EC50 (ASK1; 293/AP1-Luc cells infected with adenovirus expressing kinase active ASK1, 24 hours) of 18 nM, an EC50 (ASK1; protein binding adjusted EC50, read-out: PBadj EC50) of 563 nM and an efflux ratio at 120 min [3] of 15.4. For the same compound, the “CACO A→B” value (Caco-2 cells) was 0.26, the “CACO B→A” value (Caco-2 cells) was 4 and the “number of times compound of formula (I) shows an improvement over the indicated compound: Cyp3A4 IC50 (TST)” value (CYP3A4) was 2.8 X. The “number of times compound of formula (I) shows an improvement over the indicated compound: Cyp3A4 IC50/PBAdj.EC50” value (CYP3A4) was 92 X, the IC50 (CYP3A4) was 4000 nM and the “Cyp3A4 IC50/PBAdj.EC50” value (CYP3A4; ratio of Cyp3A4 inhibition and protein binding adjusted EC50) was 7.
